≈ marks a conversion by molar mass, not a printed value. Like-named read-outs stand apart in the source and are kept apart here.
Columns and labels:
Format in all cases: cell-based
[1] = system: Trichophyton mentagraphytes MTU-19031; assay: Minimum inhibitory concentration, anti-Trichophyton mentagraphytes activity test, strain MTU-19031; details: 27° C., a week; for MIC: Trichophyton, MTU19031, Sabouraud's dextrose agar
Description: (§1) The activity was tested by the 10 time-step dilution test, using the Sabouraud's dextrose agar culture medium (2% dextrose, 1% pepton and 1.5% agar; pH 6.5±). A platinum loopful (about 10 μl) spore suspension (prepared from a reserved strain of Trichlophyton mentagraphytes and containing 1×10^6 cells/ml) was applied in the form of drawn lines on a plate of a culture medium containing the active ingredients. The culture medium plate was kept at 27° C. for a week and then visually observed to see if any colonies had formed. The minimum inhibitory concentration was defined as the minimum concentration with which formation of distinct colonies on the culture medium plate was not observed.

[2] = system: Trichophyton mentagraphytes MTU-19024; assay: Minimum inhibitory concentration, anti-Trichophyton mentagraphytes activity test, strain MTU-19024; details: 27° C., a week; for MIC: Trichophyton, MTU19024, Sabouraud's dextrose agar
Description: as §1

[3] = system: Trichophyton violaceum MTU-19021; assay: Growth inhibition test; details: read-out: Minimum inhibitory concentration
[4] = system: Epidermophyton floccosum MTU-21007; assay: Growth inhibition test; details: MTU21007, 336 h, after 14 days cultivation at 27° C., read-out: Minimum inhibitory concentration
[5] = system: Microsporum canis MTU-20010; assay: Growth inhibition test; details: read-out: Minimum inhibitory concentration
[6] = system: Microsporum gypseum MTU-20005; assay: Growth inhibition test; details: Nannizzia gypsea, read-out: Minimum inhibitory concentration
[7] = MTU19021, 168 h, after 7 days cultivation at 27° C.
[8] = MTU19021, 336 h, after 14 days cultivation at 27° C.
[9] = MTU20010, 168 h, after 7 days cultivation at 27° C.
[10] = MTU20010, 336 h, after 14 days cultivation at 27° C.
[11] = MTU20005, 168 h, after 7 days cultivation at 27° C.
[12] = MTU20005, 336 h, after 14 days cultivation at 27° C.

## COc1cccc(N(C)C(=S)Oc2ccc(C)c(C)c2)n1 [compound 22, O--3,4-Dimethylphenyl N--(6-methoxy-2-pyridyl)-N--methylthiocarbamate]
[1]
  MIC: 0.5 µg/mL (≈ 1.65 µM)
[2]
  MIC: 0.5 µg/mL (≈ 1.65 µM)

## O--Methyl-4-nitrophenyl N--(6-methoxy-2-pyridyl)-N--methylthiocarbamate [compound 66]
[1]; Sabouraud's dextrose agar
  Minimum inhibitory concentration: 0.5 µg/mL
[2]; Sabouraud's dextrose agar
  Minimum inhibitory concentration: 0.5 µg/mL

## COc1cccc(N(C)C(=S)Oc2ccc(C(C)C)c(C)c2)n1 [compound 41, O--4-Isopropyl-3-methylphenyl N--(6-methoxy-2-pyridyl)-N--methylthiocarbamate]
[1]
  MIC: 0.5 µg/mL (≈ 1.51 µM)
[2]
  MIC: 0.5 µg/mL (≈ 1.51 µM)

## Cc1cccc(N(C)C(=S)Oc2ccc3ccccc3c2)n1 [Compound No. 2, O-2-Naphthyl N-methyl-N-(6-methyl-2-pyridyl)thiocarbamate]
[1]
  MIC: 0.5 µg/mL (≈ 1.62 µM)
[2]
  MIC: 0.5 µg/mL (≈ 1.62 µM)

## COc1cccc(N(C)C(=S)Oc2cccc(C(C)(C)C)c2)n1 [compound 28, O--3-t-Butylphenyl N--(6-methoxy-2-pyridyl)-N--methylthiocarbamate]
[3]; [7]
  MIC: 0.5 µg/mL (≈ 1.51 µM)
[3]; [8]
  MIC: 0.5 µg/mL (≈ 1.51 µM)
[4]
  MIC: 0.5 µg/mL (≈ 1.51 µM)
[1]
  MIC: 0.5 µg/mL (≈ 1.51 µM)
[5]; [9]
  MIC: 0.5 µg/mL (≈ 1.51 µM)
[5]; [10]
  MIC: 0.5 µg/mL (≈ 1.51 µM)
[2]
  MIC: 0.5 µg/mL (≈ 1.51 µM)
[6]; [11]
  MIC: 0.5 µg/mL (≈ 1.51 µM)
[6]; [12]
  MIC: 0.5 µg/mL (≈ 1.51 µM)

## CN(C)c1cccc(N(C)C(=S)Oc2ccc(C(C)(C)C)cc2)n1 [compound 36, O--4-t-Butylphenyl N--methyl-N--(6-dimethylamino-:2-pyridyl)-thiocarbamate]
[1]
  MIC: 0.5 µg/mL (≈ 1.46 µM)
[2]
  MIC: 0.5 µg/mL (≈ 1.46 µM)

## Cc1ccc(N(C)C(=S)Oc2ccc3c(c2)CCCC3)nc1C [compound 27, O--5,6,7,8-Tetrahydro-2-naphthyl N--methyl-N--(5,6-dimethyl-2-pyridyl)-thiocarbamate]
[1]
  MIC: 0.5 µg/mL (≈ 1.53 µM)
[2]
  MIC: 0.5 µg/mL (≈ 1.53 µM)

## COc1cccc(N(C)C(=S)Oc2ccc(Cl)c(C)c2)n1 [compound 38, O--4-Chloro-3-methylphenyl N--(6-methoxy-2-pyridyl)-N--methylthiocarbamate]
[1]
  MIC: 0.05 µg/mL (≈ 0.155 µM)
[2]
  MIC: 0.5 µg/mL (≈ 1.55 µM)

## CCc1ccc(OC(=S)N(C)c2cccc(OC)n2)cc1C [compound 39, O--4-Ethyl-3-methylphenyl N--(6-methoxy-2-pyridyl)-N--methylthiocarbamate]
[1]
  MIC: 0.5 µg/mL (≈ 1.58 µM)
[2]
  MIC: 0.5 µg/mL (≈ 1.58 µM)

## Cc1cc(C)nc(N(C)C(=S)Oc2ccc3c(c2)CCC3)c1 [compound 15, O--5-Indanyl N--methyl-N--(4,6-dimethyl-2-pyridyl)thiocarbamate]
[1]
  MIC: 0.5 µg/mL (≈ 1.6 µM)
[2]
  MIC: 0.5 µg/mL (≈ 1.6 µM)

## COc1cccc(N(C)C(=S)Oc2ccc(SC)c(C)c2)n1 [compound 67, O--3-Methyl-4-methylthiophenyl N--(6-methoxy-2-pyridyl)-N--methylthiocarbamate]
[1]
  MIC: 0.5 µg/mL (≈ 1.49 µM)
[2]
  MIC: 0.5 µg/mL (≈ 1.49 µM)

## COc1cccc(N(C)C(=S)Oc2ccc(C(C)C)cc2)n1 [compound 30, O--4-Isopropylphenyl N--(6-methoxy-2-pyridyl)-N--methylthiocarbamate]
[1]
  MIC: 0.5 µg/mL (≈ 1.58 µM)
[2]
  MIC: 0.5 µg/mL (≈ 1.58 µM)

## Cc1cccc(N(C)C(=S)Oc2ccc3c(c2)CCCC3)n1 [compound 8, O--5,6,7,8-Tetrahydro-2-naphthyl N--methyl-N--(6-methyl-2-pyridyl)thiocarbamate]
[1]
  MIC: 0.5 µg/mL (≈ 1.6 µM)
[2]
  MIC: 0.5 µg/mL (≈ 1.6 µM)

## COc1cccc(N(C)C(=S)Oc2ccc(SC)cc2)n1 [compound 62, O--4-Methylthiophenyl N--(6-methoxy-2-pyridyl)-N--methylthiocarbamate]
[1]
  MIC: 0.05 µg/mL (≈ 0.156 µM)
[2]
  MIC: 0.5 µg/mL (≈ 1.56 µM)

## COc1cccc(N(C)C(=S)Oc2ccc(C(C)(C)C)cc2)n1 [compound 16, O--4-t-Butylphenyl N--(6-methoxy-2-pyridyl)-N--methylthiocarbamate]
[1]
  MIC: 0.5 µg/mL (≈ 1.51 µM)
[2]
  MIC: 0.5 µg/mL (≈ 1.51 µM)

## COc1cccc(N(C)C(=S)Oc2ccc3c(c2)C2CCC3C2)n1 (stereo not shown) [compound 12, O--1,4-Methano-1,2,3,4-tetrahydro-6-naphthyl N--(6-methoxy-2-pyridyl)-N--methylthiocarbamate]
[1]
  MIC: 0.5 µg/mL (≈ 1.47 µM)
[2]
  MIC: 0.5 µg/mL (≈ 1.47 µM)

## Cc1ccc(N(C)C(=S)Oc2ccc3ccccc3c2)nc1C [compound 25, O--2-Naphthyl N--methyl-N--(5,6-dimethyl-2-pyridyl)thiocarbamate]
[1]
  MIC: 0.5 µg/mL (≈ 1.55 µM)
[2]
  MIC: 0.5 µg/mL (≈ 1.55 µM)

## CN(C)c1cccc(N(C)C(=S)Oc2ccc3ccccc3c2)n1 [compound 35, O--2-Naphthyl N--methyl-N--(6-dimethylamino-2-pyridyl)-thiocarbamate]
[1]
  MIC: 0.5 µg/mL (≈ 1.48 µM)
[2]
  MIC: 0.5 µg/mL (≈ 1.48 µM)

## COc1cccc(N(C)C(=S)Oc2cccc(C(C)C)c2)n1 [compound 48, O--3-Isopropylphenyl N--(6-methoxy-2-pyridyl)-N--methylthiocarbamate]
[3]; [7]
  MIC: 0.5 µg/mL (≈ 1.58 µM)
[3]; [8]
  MIC: 0.5 µg/mL (≈ 1.58 µM)
[4]
  MIC: 0.5 µg/mL (≈ 1.58 µM)
[1]
  MIC: 0.5 µg/mL (≈ 1.58 µM)
[5]; [9]
  MIC: 0.5 µg/mL (≈ 1.58 µM)
[5]; [10]
  MIC: 0.5 µg/mL (≈ 1.58 µM)
[2]
  MIC: 0.5 µg/mL (≈ 1.58 µM)
[6]; [11]
  MIC: 0.5 µg/mL (≈ 1.58 µM)
[6]; [12]
  MIC: 0.5 µg/mL (≈ 1.58 µM)

## COc1cccc(N(C)C(=S)Oc2ccc3c(c2)C2CCC3CC2)n1 [compound 21, O--1,4-Ethano-1,2,3,4-tetrahydro-6-naphthyl N--(6-methoxy-2-pyridyl)-N--methylthiocarbamate]
[1]
  MIC: 0.5 µg/mL (≈ 1.41 µM)
[2]
  MIC: 0.5 µg/mL (≈ 1.41 µM)

## Cc1cc(C)nc(N(C)C(=S)Oc2ccc3ccccc3c2)c1 [compound 14, O--2-Naphthyl N--methyl-N--(4,6,-dimethyl-2-pyridyl)thiocarbamate]
[1]
  MIC: 0.5 µg/mL (≈ 1.55 µM)
[2]
  MIC: 0.5 µg/mL (≈ 1.55 µM)

## CCC(C)(C)c1ccc(OC(=S)N(C)c2cccc(OC)n2)cc1 [compound 19, O--4-t-Pentylphenyl N--(6-methoxy-2-pyridyl)-N--methylthiocarbamate]
[1]
  MIC: 0.5 µg/mL (≈ 1.45 µM)
[2]
  MIC: 0.5 µg/mL (≈ 1.45 µM)

## CCc1ccc(OC(=S)N(C)c2cccc(OC)n2)cc1 [compound 33, O--4-Ethylphenyl N--(6-methoxy-2-pyridyl)-N--methylthiocarbamate]
[1]
  MIC: 0.05 µg/mL (≈ 0.165 µM)
[2]
  MIC: 0.5 µg/mL (≈ 1.65 µM)

## COc1cccc(N(C)C(=S)Oc2ccc(Cl)c(Cl)c2)n1 [compound 50, O--3,4-Dichlorophenyl N--(6-methoxy-2-pyridyl)-N--methylthiocarbamate]
[1]
  MIC: 0.5 µg/mL (≈ 1.46 µM)
[2]
  MIC: 0.5 µg/mL (≈ 1.46 µM)

## COc1cccc(N(C)C(=S)Oc2ccc(Br)c(C)c2)n1 [compound 46, O--4-Bromo-3-methylphenyl N--(6-methoxy-2-pyridyl)-N--methylthiocarbamate]
[1]
  MIC: 0.5 µg/mL (≈ 1.36 µM)
[2]
  MIC: 0.5 µg/mL (≈ 1.36 µM)

## COc1cccc(N(C)C(=S)Oc2ccc(C)cc2)n1 [compound 53, O--4-Methylphenyl N--(6-methoxy-2-pyridyl)-N--methylthiocarbamate]
[1]
  MIC: 0.5 µg/mL (≈ 1.73 µM)
[2]
  MIC: 0.5 µg/mL (≈ 1.73 µM)

## COc1cccc(N(C)C(=O)Oc2ccc3c(c2)C2CCC3C2)n1 (stereo not shown) [compound 13, 1,4-Methano-1,2,3,4-tetrahydro-6-naphthyl N--(6-methoxy-2-pyridyl)-N--methylcarbamate]
[1]
  MIC: 0.5 µg/mL (≈ 1.54 µM)
[2]
  MIC: 0.5 µg/mL (≈ 1.54 µM)

## COc1cccc(N(C)C(=S)Oc2ccc(C(F)(F)F)cc2)n1 [compound 43, O-- 4-Trifluoromethylphenyl N--(6-methoxy-2-pyridyl)-N--methylthiocarbamate]
[1]
  MIC: 0.05 µg/mL (≈ 0.146 µM)
[2]
  MIC: 0.5 µg/mL (≈ 1.46 µM)

## C=C(C)c1ccc(OC(=S)N(C)c2cccc(OC)n2)cc1 [compound 56, O--4-Isopropenylphenyl N--(6-methoxy-2-pyridyl)-N--methylthiocarbamate]
[1]
  MIC: 0.5 µg/mL (≈ 1.59 µM)
[2]
  MIC: 0.5 µg/mL (≈ 1.59 µM)

## CNc1cccc(N(C)C(=S)Oc2ccc(C(C)(C)C)cc2)n1 [compound 58, O--4-t-Butylphenyl N--methyl-N--(6-methylamino-2-pyridyl)thiocarbamate]
[1]
  MIC: 0.5 µg/mL (≈ 1.52 µM)
[2]
  MIC: 0.5 µg/mL (≈ 1.52 µM)

## CN(C)c1cccc(N(C)C(=S)Oc2ccc(C(F)(F)F)cc2)n1 [compound 68, O--4-Trifluoromethylphenyl N--(6-dimethylamino-2-pyridyl)-N--methylthiocarbamate]
[1]
  MIC: 0.5 µg/mL (≈ 1.41 µM)
[2]
  MIC: 0.5 µg/mL (≈ 1.41 µM)

## CCCc1ccc(OC(=S)N(C)c2cccc(OC)n2)cc1 [compound 65, O--4-Propylphenyl N--(6-methoxy-2-pyridyl)-N--methylthiocarbamate]
[1]
  MIC: 0.5 µg/mL (≈ 1.58 µM)
[2]
  MIC: 0.5 µg/mL (≈ 1.58 µM)

## Cc1ccc(N(C)C(=S)Oc2ccc3c(c2)CCC3)nc1C [compound 26, O--5-Indanyl N--methyl-N--(5,6-dimethyl-2-pyridyl)thiocarbamate]
[1]
  MIC: 0.5 µg/mL (≈ 1.6 µM)
[2]
  MIC: 0.5 µg/mL (≈ 1.6 µM)

## COc1cccc(N(C)C(=S)Oc2ccc(Br)cc2)n1 [compound 34, O--4-Bromophenyl N--(6-methoxy-2-pyridyl)-N--methylthiocarbamate]
[1]
  MIC: 0.05 µg/mL (≈ 0.142 µM)
[2]
  MIC: 0.5 µg/mL (≈ 1.42 µM)

From patent US4621090A, “Antifungal compositions” (Toyo Soda Manufacturing Co., Ltd., priority 1983, dated 1986)
